Assay results from US9144576B2, “Topical antiviral formulations” (3B Pharmaceuticals, Inc., priority 2008, dated 2015).

What was measured:
HSV-1 = assay: In vitro assay for anti-HSV-1 mRNA activity (QuantiGene Plex 2.0 bDNA) in infected primary Adult Human Dermal Microvascular Endothelial Cells; type: cell-based, HSV type 1; settings: variable slope fit; for LogIC50 (best-fit value): concentrations in μM, overnight incubation, triplicate
Description: (§1) In vitro assays for anti-HSV-1 and anti-HSV-2 mRNA activity are described in Example 1. Confluent Vero cell monolayers were infected with HSV type 1 or HSV type 2 at a multiplicity of infection of 10 and the resultant virus was used to infect primary Adult Human Dermal Microvascular Endothelial Cells for 1 hour; the supernatant was replaced with fresh culture media and then incubated overnight in the presence of various concentrations of acyclovir, 2-deoxy-D-glucose or an equimolar combination of the two compounds. After overnight incubation, the cells were harvested, lysed, and subjected to QuantiGene Plex 2.0 assay (Panomics, Inc., Fremont, Calif.) for quantitative assay of HSV-1 and HSV-2 mRNA. The QuantiGene Plex 2.0 assay combines branched DNA (bDNA) signal amplification and multi-analyte profiling beads (xMAP®) technologies to enable the detection and quantitation of multiple mRNA targets simultaneously. Briefly, confluent Vero cell monolayers were infected with HSV type 1 or HSV type 2 at a multiplicity of infection of 10 and the resultant virus was used to infect primary Adult Human Dermal Microvascular Endothelial Cells for 1 hour and then the supernatant was replaced with fresh culture media and then incubated overnight in the presence of various concentrations of acyclovir, 2-deoxy-D-glucose or an equimolar combination of the two compounds. […], this assay is considered to be a more sensitive and specific assay (bDNA) for the final readout when compared to an ELISA. The ELISA method while easier, can lack specificity to determine the difference between HSV1 and HSV2. The bDNA assay is a hybridization-based method of target-specific RNA quantitation that amplifies signal rather than target RNA, using labeled DNA probes. The QuantiGene Plex 2.0 system utilizes fluorescent microspheres (Capture Beads) as a support to capture specific RNA molecules. The ability to quantify multiple target-specific RNA molecules in a single sample lies in the design of the Probe Sets. […] The resulting fluorescence signal associated with individual Capture Beads is read on a Luminex flow cytometer. Signal is reported as median fluorescence intensity (MFI) and is proportional to the number of target RNA molecules present in the sample. […]

HSV-2 = assay: In vitro assay for anti-HSV-2 mRNA activity (QuantiGene Plex 2.0 bDNA) in infected primary Adult Human Dermal Microvascular Endothelial Cells; type: cell-based, HSV type 2; settings: variable slope fit; for LogIC50 (best-fit value): concentrations in μM, overnight incubation, triplicate
Description: as §1

[1] = topical versus oral; cited from earlier work

Row | SMILES | HillSlope (best-fit value) (HSV-1) | LogIC50 (best-fit value) (HSV-1) | HillSlope (best-fit value) (HSV-2) | LogIC50 (best-fit value) (HSV-2) | drug concentration in the skin after local application, lower than after given orally [1]
1 | O=CC[C@@H](O)[C@H](O)[C@H](O)CO [2 Deoxy D glucose, 2-deoxy-D-glucose] | −2.395 | 1.32 | −3.957 | 0.9029 | –
2 | Nc1nc2c(ncn2COCCO)c(=O)[nH]1 [Acyclovir, 9-(2-hydroxyethoxymethyl)guanine] | −1.108 | 0.2509 | −1.113 | 0.2805 | 2-3 times
